This assay deals with P388 leukemia ip, CD2F1 mice, survival T/C. The assay is described as follows: NCI In Vivo Anticancer Drug Screen. Data for tumor model P388 Leukemia (intraperitoneal) in CD2F1 (CDF1) mice. The following applies: endpoint: median survival time, higher = longer survival. The method, boiled down: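 Mice carrying the transplanted tumor received test compound or vehicle. Survival was recorded in each group, and the value is the treated-group measurement divided by that of the vehicle-treated control group.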

Where [1] appears, read: dose: 25.0 mg/kg/injection, schedule: Q01DX009 (ip), vehicle: saline with Tween-80.
[2] abbreviates: dose: 50.0 mg/kg/injection, schedule: Q01DX005 (ip), vehicle: saline.
Where [3] appears, read: dose: 100.0 mg/kg/injection, schedule: Q01DX005 (ip), vehicle: saline.
Setting [4] is: dose: 200.0 mg/kg/injection, schedule: Q01DX005 (ip), vehicle: saline.
Setting [5] is: dose: 50.0 mg/kg/injection, schedule: Q01DX009 (ip), vehicle: saline with Tween-80.
[6] abbreviates: dose: 100.0 mg/kg/injection, schedule: Q01DX009 (ip), vehicle: saline with Tween-80.
Where [7] appears, read: dose: 200.0 mg/kg/injection, schedule: Q01DX009 (ip), vehicle: saline with Tween-80.
Setting [8] is: dose: 50.0 mg/kg/injection, schedule: Q04DX002 (ip), vehicle: saline with Tween-80.
Where [9] appears, read: dose: 100.0 mg/kg/injection, schedule: Q04DX002 (ip), vehicle: saline with Tween-80.
[10] abbreviates: dose: 50.0 mg/kg/injection, schedule: Q01DX009 (ip), vehicle: saline.
Setting [11] is: dose: 100.0 mg/kg/injection, schedule: Q01DX009 (ip), vehicle: saline.
Where [12] appears, read: dose: 200.0 mg/kg/injection, schedule: Q01DX009 (ip), vehicle: saline.

Where “and” joins values, the source holds several entries; their conditions need not be identical. Equal entries are not always repeated. Toxic doses and inconclusive results are not listed.

In the case of `COC1/C=C/OC2(C)Oc3c(C)c(O)c4c(c3C2=O)C(=O)C2=C(NC(=NC2)/C(C)=C\C=C\C(C)C(O)C(C)C(O)C(C)C(OC(C)=O)C1C)C4=O` (stereo unspecified), the T/C is 94 % of control (dose: 6.25 mg/kg/injection, schedule: Q04DX003 (ip), vehicle: other); 101 % of control (dose: 12.5 mg/kg/injection, schedule: Q04DX003 (ip), vehicle: other); 113 % of control (dose: 25.0 mg/kg/injection, schedule: Q04DX003 (ip), vehicle: other); 109 % of control (dose: 50.0 mg/kg/injection, schedule: Q04DX003 (ip), vehicle: other); 122 % of control (dose: 100.0 mg/kg/injection, schedule: Q04DX003 (ip), vehicle: other).

`CC(C)CC([NH-])C(=O)O.[C-]#[O+].[C-]#[O+].[Rh]` (stereo unspecified): the T/C is 113 % of control (dose: 6.25 mg/kg/injection, schedule: Q01DX009 (ip), vehicle: saline with Tween-80); 115 % of control (dose: 12.5 mg/kg/injection, schedule: Q01DX009 (ip), vehicle: saline with Tween-80); 109 % of control under setting [1].

For `CS/C(=C/c1ccc2ccccc2[n+]1C)N1CCCC1`, the T/C was 103 % of control (dose: 0.1 mg/kg/injection, schedule: Q01DX005 (ip), vehicle: saline); 99 % of control (dose: 0.2 mg/kg/injection, schedule: Q01DX005 (ip), vehicle: saline); 100 % of control (dose: 0.4 mg/kg/injection, schedule: Q01DX005 (ip), vehicle: saline); 116 % of control (dose: 0.78 mg/kg/injection, schedule: Q01DX005 (ip), vehicle: saline); 111 % of control (dose: 1.56 mg/kg/injection, schedule: Q01DX005 (ip), vehicle: saline).

As for `CN(C)C1C(=O)C(C(=O)NCNC(CO)(CO)CO)=C(O)C2(O)C(=O)C3=C(O)c4c(O)cccc4C(C)(O)C3CC12` (stereo unspecified), the T/C is 92 % of control under setting [2], 101 % of control under setting [3] and 100 % of control under setting [4].

Turning to `CC(C)C1=CC23CCC4C(C)(C(=O)O)CCCC4(C)C2CC1C(C(=O)O)C3C(=O)O` (stereo unspecified), the T/C is 97 % of control under setting [2], 96 % of control under setting [3] and 98 % of control under setting [4].

`N#C/C(=C1C=C(Br)/C(=N\O)C=C\1Cl)c1cccc2ccccc12`: the T/C is 103 % of control under setting [5]; 102 % of control under setting [6]; 102 % of control under setting [7]; 115 % of control (dose: 400.0 mg/kg/injection, schedule: Q01DX009 (ip), vehicle: saline with Tween-80).

`Cc1cc(NN=O)nc(C)c1C#N`: the T/C was 109 % of control (dose: 3.12 mg/kg/injection, schedule: Q01DX009 (ip), vehicle: water); 123 % of control (dose: 6.25 mg/kg/injection, schedule: Q01DX009 (ip), vehicle: water); 116 % of control (dose: 12.5 mg/kg/injection, schedule: Q01DX009 (ip), vehicle: water); 150 % of control and 151 % of control (dose: 25.0 mg/kg/injection, schedule: Q01DX009 (ip), vehicle: water); 178 % of control and 190 % of control (dose: 50.0 mg/kg/injection, schedule: Q01DX009 (ip), vehicle: water); 178 % of control (dose: 100.0 mg/kg/injection, schedule: Q01DX009 (ip), vehicle: water).

On to `O=C(Nc1nncs1)c1ccncc1`, for which the T/C was 104 % of control under setting [8]; 112 % of control under setting [9]; 157 % of control (dose: 200.0 mg/kg/injection, schedule: Q04DX002 (ip), vehicle: saline with Tween-80); 153 % of control and 164 % of control (dose: 400.0 mg/kg/injection, schedule: Q04DX002 (ip), vehicle: saline with Tween-80).

`Cc1ccc(NC(=S)SCc2ccc3c(c2)OCO3)cc1Br`: the T/C is 122 % of control (dose: 12.5 mg/kg/injection, schedule: Q01DX009 (ip), vehicle: Klucel (hydroxypropylcellulose) (HPC)); 102 % of control (dose: 25.0 mg/kg/injection, schedule: Q01DX009 (ip), vehicle: Klucel (hydroxypropylcellulose) (HPC)); 120 % of control (dose: 50.0 mg/kg/injection, schedule: Q01DX009 (ip), vehicle: Klucel (hydroxypropylcellulose) (HPC)); 104 % of control (dose: 50.0 mg/kg/injection, schedule: Q01DX009 (ip), vehicle: suspension in saline); 115 % of control (dose: 100.0 mg/kg/injection, schedule: Q01DX009 (ip), vehicle: Klucel (hydroxypropylcellulose) (HPC)); 111 % of control (dose: 100.0 mg/kg/injection, schedule: Q01DX009 (ip), vehicle: suspension in saline). In addition, the T/C by setting is: (dose: 200.0 mg/kg/injection, schedule: Q01DX009 (ip), vehicle: Klucel (hydroxypropylcellulose) (HPC)) 116 % of control; (dose: 200.0 mg/kg/injection, schedule: Q01DX009 (ip), vehicle: suspension in saline) 104 % of control.

As to `C[C@@H]1C[C@H]2OC(=O)[C@@]3(C)CCC[C@@](C)([C@@H]23)[C@@]1(O)CCc1ccoc1`, the T/C is 108 % of control (dose: 12.5 mg/kg/injection, schedule: Q01DX005 (ip), vehicle: Klucel (hydroxypropylcellulose) (HPC)); 105 % of control (dose: 25.0 mg/kg/injection, schedule: Q01DX005 (ip), vehicle: Klucel (hydroxypropylcellulose) (HPC)); 106 % of control (dose: 50.0 mg/kg/injection, schedule: Q01DX005 (ip), vehicle: Klucel (hydroxypropylcellulose) (HPC)); 97 % of control (dose: 100.0 mg/kg/injection, schedule: Q01DX005 (ip), vehicle: Klucel (hydroxypropylcellulose) (HPC)).

Consider `CCCCCCCC[N+]1([O-])CCOCC1`, for which the T/C runs as follows: under setting [10], 108 % of control; under setting [11], 97 % of control; under setting [12], 88 % of control.

Turning to `CCn1c2ccccc2c2cc(NC(=O)Nc3ccc4c(c3)c3ccccc3n4CC)ccc21`, the T/C by setting is: (dose: 50.0 mg/kg/injection, schedule: Q01DX005 (ip), vehicle: saline with Tween-80) 90 % of control; (dose: 100.0 mg/kg/injection, schedule: Q01DX005 (ip), vehicle: saline with Tween-80) 97 % of control; (dose: 200.0 mg/kg/injection, schedule: Q01DX005 (ip), vehicle: saline with Tween-80) 109 % of control.

Regarding `N#C/C(=C\c1ccc2c(c1)OCO2)C(=O)N/N=C/c1ccc2c(c1)OCO2`, the T/C reads like this: under setting [10], 101 % of control; under setting [11], 98 % of control; under setting [12], 94 % of control.

Consider `CCC(=O)NN1C(=O)c2ccccc2C1=O`, for which the T/C (dose: 60.0 mg/kg/injection, schedule: Q01DX005 (ip), vehicle: saline with Tween-80) was 103 % of control; the T/C (dose: 120.0 mg/kg/injection, schedule: Q01DX005 (ip), vehicle: saline with Tween-80) was 104 % of control; the T/C (dose: 240.0 mg/kg/injection, schedule: Q01DX005 (ip), vehicle: saline with Tween-80) is 99 % of control.

For `C=Cc1cncc2c1CCOC2=O`, the T/C is 86 % of control (dose: 3.75 mg/kg/injection, schedule: Q01DX005 (ip), vehicle: Klucel (hydroxypropylcellulose) (HPC)); 93 % of control (dose: 7.5 mg/kg/injection, schedule: Q01DX005 (ip), vehicle: Klucel (hydroxypropylcellulose) (HPC)); 86 % of control (dose: 30.0 mg/kg/injection, schedule: Q01DX005 (ip), vehicle: Klucel (hydroxypropylcellulose) (HPC)).

For `CC(C)(CO)CS`, the T/C was 99 % of control under setting [5], 100 % of control under setting [6] and 97 % of control under setting [7].

Consider `CN1CCN(CCCN2c3ccccc3Sc3ccc(C(F)(F)F)cc32)CC1`, for which the T/C is 109 % of control under setting [1]; 118 % of control under setting [5]; 163 % of control (dose: 66.0 mg/kg/injection, schedule: Q04DX003 (ip), vehicle: saline with Tween-80); 150 % of control (dose: 100.0 mg/kg/injection, schedule: Q04DX003 (ip), vehicle: saline with Tween-80).

For the compound `Cc1c([N+](=O)[O-])oc2c1C(=O)N([N+](=O)[O-])CCC2`, where the note is “dose: 100.0 mg/kg/injection, schedule: Q04DX003 (ip), vehicle: Klucel (hydroxypropylcellulose) (HPC)”, the T/C is 114 % of control.

For `CSC(C=C1C=CN(CC(=O)c2ccccc2)C=C1)=C(C#N)C#N`, the T/C is 97 % of control (dose: 25.0 mg/kg/injection, schedule: Q04DX002 (ip), vehicle: saline with Tween-80); 102 % of control under setting [8]; 99 % of control under setting [9].

The record behind these values is PubChem BioAssay AID330 (DTP/NCI, 2004).
